pIC50: −log10 of the molar value.
Tests used:
[1] = system: SMCs in relation to ECs; experiment: activity ratio: efficiency towards SMCs / efficiency towards ECs; assay type: cell-based; conditions: for a.r. code: activity ratio class, order in Table 1 follows the calculated values
[2] = system: SMCs; conditions: cited from earlier work
[3] = system: rat aortic SMCs; experiment: vascular SMC proliferation (PDGF-induced, resazurin conversion); assay type: cell-based
Procedure: For determination of vascular SMC proliferation, 0.5×10^4 viable rat aortic SMCs per well were seeded in SMC growth medium (DMEM/F12 medium with 20% serum, 30 μg/mL Gentamicin and 15 ng/mL Amphotericin) in 96-well plates. 24 h later, the medium was removed, the cells were washed once with SMC starvation medium (DMEM/F12 medium with 0.1% serum, 0.2% BSA, 30 μg/mL Gentamicin and 15 ng/mL Amphotericin) and incubated in starvation medium for further 24 h.
The quiescent cells were then pretreated for 30 min with the test compounds and induced to proliferate with 20 ng/mL platelet-derived growth factor (PDGF). Unstimulated cells were utilized for normalization and estimation of the basal level of proliferation. The final concentration of the solvent vehicle, dimethyl sulfoxide (DMSO), was the same (0.1%) in all wells. 48 h later, the SMC proliferation was quantified by resazurin dye conversion for 2 h as previously described (H. Joa et al., J. Nat. Prod. 74(6), 1513-6 (2011)).

[4] = system: ECs; conditions: cited from earlier work
[5] = system: HUVECtert immortalized human umbilical vein endothelial cells; experiment: endothelial cell proliferation (resazurin); assay type: cell-based
Procedure: For determination of endothelial cell proliferation, 0.5×10^4 HUVECtert immortalized human umbilical vein endothelial cells (H. B. Schiller et al., Mol. Biol. Cell. 20(3), 745-756 (2009)) were seeded in 96-well plates for 24 h in HUVEC Complete Medium (EBM™ growth medium supplemented with 10% fetal bovine serum, EBM™ SingleQuots (Lonza, Basel, Switzerland), 100 U/mL benzylpenicillin, 100 μg/mL streptomycin, and 1% amphotericin). Afterwards, the medium was exchanged with fresh HUVEC Complete Medium and cells were treated with the indicated compounds for 48 h. After the end of the incubation period, the medium was removed, the cells were washed once with 200 μL/well PBS, and treated with 150 μL HUVEC Complete Medium containing 10 μg/mL resazurin. 2 h later, the fluorescence was measured at a wavelength of 580 nm, with excitation wavelength 535 nm in a 96-well plate reader (Tecan GENios Pro; Tecan Group Ltd., Mannedorf, Switzerland).

[6] = system: SMCs; experiment: IC50 of Leoligin for SMCs (A. Knolz, Master's Thesis, University of Innsbruck, 2008); assay type: cell-based

## COc1ccc(C[C@H]2CO[C@H](c3cc(OC)c(OC)c(OC)c3)[C@H]2COC(=O)C2CCCC2)cc1OC [Example 40, ((2S,3R,4R)-4-(3,4-dimethoxybenzyl)-2-(3,4,5-trimethoxyphenyl)tetrahydro-furan-3-yl)methyl cyclopentanecarboxylate]
[1]
  a.r. code: AA (a.r. ≧ 2.0)

## COc1ccc(C[C@H]2CO[C@H](c3cc(OC)c(OC)c(OC)c3)[C@H]2COC(=O)C2CC2)cc1OC [Example 41, ((2S,3R,4R)-4-(3,4-dimethoxybenzyl)-2-(3,4,5-trimethoxyphenyl)tetrahydro-furan-3-yl)methyl cyclopropanecarboxylate]
[1]
  a.r. code: AA (a.r. ≧ 2.0)

## C=CCOC[C@H]1[C@@H](Cc2ccc(OC)c(OC)c2)CO[C@@H]1c1ccc(OC)c(OC)c1 [Example 42, (2S,3R,4R)-3-((allyloxy)methyl)-4-(3,4-dimethoxybenzyl)-2-(3,4-dimethoxy-phenyl)tetrahydrofuran]
[1]
  a.r. code: AAA (a.r. ≧ 5.0)

## C#CCOC[C@H]1[C@@H](Cc2ccc(OC)c(OC)c2)CO[C@@H]1c1ccc(OC)c(OC)c1 [Example 43, (2S,3R,4R)-4-(3,4-dimethoxybenzyl)-2-(3,4-dimethoxyphenyl)-3-((prop-2-yn-1-yloxy)methyl)tetrahydrofuran]
[1]
  a.r. code: A (a.r. ≧ 1.50)

## C/C=C(/C)C(=O)OC[C@H]1[C@@H](Cc2ccc(OC)c(OC)c2)CO[C@@H]1c1ccc(OC)c(OC)c1 [Leoligin, (Z)-((2S,3R,4R)-4-(3,4-dimethoxybenzyl)-2-(3,4-dimethoxyphenyl)tetrahydro-furan-3-yl)methyl 2-methylbut-2-enoate]
[2]
  pIC50: 4.26
[3]; 1 minus fraction of surviving SMCs
  Efficiency towards SMCs: 1-0.81 = 0.19
[3]; rat aortic SMCs, 20 ng/mL PDGF, 48 h, resazurin
  Percentage of surviving SMCs: 0.81 (81%)
[4]
  pIC50: 4.75
[1]; inverse of 0.39
  inverse value of activity ratio (factor of selective inhibition of ECs relative to SMCs): approximately 2.5
[5]; 1 minus fraction of surviving ECs
  Efficiency towards ECs: 1-0.51 = 0.49
[5]; HUVECtert, 48 h, resazurin
  Percentage of surviving ECs: 0.51 (51%)
[6]; from cited IC50 values
  inverse value of IC50 ratio (measure for selective inhibition of ECs compared to SMCs): 3.0
[6]; from cited IC50 values for ECs and SMCs
  IC50 ratio (measure for selective inhibition of SMCs compared to ECs): 0.33

— patent US20170157301A1, “LEOLIGIN DERIVATIVES AS SMOOTH MUSCLE CELL PROLIFERATION INHIBITORS” (TECHNISCHE UNIVERSITAET WIEN, priority 2014, published 2017)
